Columns and labels:
[1] = system: larvae of the mustard beetle (Phaedon cochleariae); test: Phaedon cochleariae spray test (PHAECO); assay type: in vivo; conditions: application rate 100 g/ha; Chinese cabbage leaf discs; after 7 days
Description: Phaedon cochleariae—Spray Test (PHAECO)
(§1) Solvents: 78.0 parts by weight of acetone
(§2) • 1.5 parts by weight of dimethylformamide Emulsifier: alkylaryl polyglycol ether
(§3) To produce a suitable preparation of active compound, 1 part by weight of active compound is dissolved using the stated parts by weight of solvent and made up with water comprising an emulsifier concentration of 1000 ppm until the desired concentration is reached. To produce further test concentrations, the preparation is diluted with emulsifier-containing water.
After 7 days, the efficacy in % is determined. 100% means that all of the beetle larvae have been killed; 0% means that none of the beetle larvae have been killed.

[2] = system: green peach aphid (Myzus persicae); test: Myzus persicae spray test (MYZUPE); assay type: in vivo; conditions: application rate 100 g/ha; Chinese cabbage leaf discs; after 6 days
Description: Myzus persicae—spray test (MYZUPE)
Solvents: 78 parts by weight of acetone
as §2, §3
Discs of Chinese cabbage leaves (Brassica pekinensis) infested by all stages of the green peach aphid (Myzus persicae) are sprayed with an active compound preparation of the desired concentration.
After 6 days, the efficacy in % is determined. 100% here means that all of the aphids have been killed; 0% means that no aphids have been killed.

[3] = system: greenhouse red spider mite (Tetranychus urticae), OP-resistant; test: Tetranychus urticae spray test, OP-resistant (TETRUR); assay type: in vivo; conditions: application rate 100 g/ha; bean leaf discs; after 6 days
Description: Tetranychus urticae—Spray Test, OP-Resistant (TETRUR)
as §1, §2, §3
Discs of bean leaves (Phaseolus vulgaris) which are infested by all stages of the greenhouse red spider mite (Tetranychus urticae) are sprayed with an active compound preparation of the desired concentration.
After 6 days, the efficacy in % is determined. 100% means that all of the spider mites have been killed; 0% means that none of the spider mites have been killed.

[4] = log P determination by HPLC on reversed-phase column (C18), EEC Directive 79/831 Annex V.A8; assay type: physicochemical; conditions: method a): Agilent 1100 LC, Zorbax Eclipse Plus C18, acetonitrile/water with formic acid, gradient 10-95% in 4.25 min, 55° C.
Description: Agilent 1100 LC system; 50*4.6 Zorbax Eclipse Plus C18 1.8 micron; mobile phase A: acetonitrile (0.1% formic acid); mobile phase B: water (0.09% formic acid); linear gradient from 10% acetonitrile to 95% acetonitrile in 4.25 min, then 95% acetonitrile for a further 1.25 min; oven temperature 55° C.; flow rate: 2.0 ml/min. Mass detection is carried out via an Agilend MSD system.
^a)Unless indicated otherwise, the following method was used to determine the log P values and masses: The determination of the given log P values was carried out in accordance with EEC Directive 79/831 Annex V.A8 by HPLC (High Performance Liquid Chromatography) on a reversed-phase column (C18). Agilent 1100 LC system; 50*4.6 Zorbax Eclipse Plus C18 1.8 micron; mobile phase A: acetonitrile (0.1% formic acid); mobile phase B: water (0.09% formic acid); linear gradient from 10% acetonitrile to 95% acetonitrile in 4.25 min, then 95% acetonitrile for a further 1.25 min; oven temperature 55° C.; flow rate: 2.0 ml/min. Mass detection is carried out via an Agilend MSD system. ^b)Note for the alternative method for determining log P values and masses: The stated log P values were determined in accordance with EEC Directive 79/831 Annex V.A8 by HPLC (High Performance Liquid Chromatography) using a reversed-phase column (C18). Waters ACQUITY UPLC-MS system; 2.1*50 mm Zorbax Eclipse Plus C18 1.8 μm 600 bar; injection volume: 0.5 ul about 1000 ppm; mobile phase A: acetonitrile (0.1% formic acid); mobile phase B: water (0.085% formic acid); linear gradient from 10% acetonitrile to 95% acetonitrile in 1.5 min, then 95% acetonitrile for a further 0.5 min; oven temperature 60° C.; flow rate: 1.0 ml/min. Mass detection is carried out via a Waters SQD system.

[5] = system: engorged adult female cattle ticks (Boophilus microplus); test: Boophilus microplus injection test (BOOPMI Inj); assay type: in vivo; conditions: application rate 20 μg/animal; injection into abdomen; assessed after 7 days
Description: Boophilus microplus Injection Test (BOOPMI Inj)
(§4) Solvent: dimethyl sulphoxide
To produce a suitable preparation of active compound, 10 mg of active compound are mixed with 0.5 ml of solvent, and the concentrate is diluted with solvent to the desired concentration.
1 μl of the active compound solution is injected into the abdomen of 5 engorged adult female cattle ticks (Boophilus microplus). The animals are transferred into dishes and kept in a climate-controlled room.
(§5) The activity is assessed after 7 days by laying of fertile eggs. Eggs whose fertility is not visible from the outside are stored in a climate-controlled cabinet until the larvae hatch after about 42 days. An efficacy of 100% means that none of the ticks has laid any fertile eggs; 0% means that all eggs are fertile.

[6] = system: caterpillars of the armyworm (Spodoptera frugiperda); test: Spodoptera frugiperda spray test (SPODFR); assay type: in vivo; conditions: application rate 100 g/ha; maize leaf discs; after 7 days
Description: Spodoptera frugiperda—Spray Test (SPODFR)
as §1, §2, §3
Leaf discs of maize (Zea mays) are sprayed with an active compound preparation of the desired concentration and, after drying, populated with caterpillars of the armyworm (Spodoptera frugiperda).
After 7 days, the efficacy in % is determined. 100% means that all of the caterpillars have been killed; 0% means that none of the caterpillars have been killed.

[7] = system: L1 larvae of the Australian sheep blowfly (Lucilia cuprina); test: Lucilia cuprina test (LUCICU); assay type: in vivo; conditions: application rate 100 ppm; minced horsemeat; after 2 days
Description: Lucilia cuprina Test (LUCICU) Solvent: dimethyl sulphoxide To produce a suitable preparation of active compound, 10 mg of active compound are mixed with 0.5 ml of dimethyl sulphoxide, and the concentrate is diluted with water to the desired concentration. About 20 L1 larvae of the Australian sheep blowfly (Lucilia cuprina) are transferred into a test vessel containing minced horsemeat and the active compound preparation of the desired concentration. After 2 days, the kill in % is determined. 100% means that all of the larvae have been killed; 0% means that none of the larvae have been killed.

[8] = system: southern root-knot nematode (Meloidogyne incognita); test: Meloidogyne incognita test (MELGIN); assay type: in vivo; conditions: application rate 20 ppm; lettuce; after 14 days
Description: Meloidogyne incognita Test (MELGIN) Solvent: 125.0 parts by weight of acetone To prepare a suitable active compound preparation, 1 part by weight of active compound is mixed with the stated amount of solvent and the concentrate is diluted with water to the desired concentration. Vessels are filled with sand, active compound solution, an egg/larvae suspension of the southern root-knot nematode (Meloidogyne incognita) and lettuce seeds. The lettuce seeds germinate and the plants develop. On the roots, galls are formed. After 14 days, the nematicidal efficacy in % is determined by the formation of galls. 100% means that no galls have been found; 0% means that the number of galls on the treated plants corresponds to the untreated control.

[9] = system: adult houseflies (Musca domestica); test: Musca domestica test (MUSCDO); assay type: in vivo; conditions: application rate 100 ppm; after 2 days
Description: Musca domestica Test (MUSCDO) Solvents: dimethyl sulphoxide To produce a suitable preparation of active compound, 10 mg of active compound are mixed with 0.5 ml of dimethyl sulphoxide, and the concentrate is diluted with water to the desired concentration. Vessels containing a sponge treated with sugar solution and the active compound preparation of the desired concentration are populated with 10 adult houseflies (Musca domestica). After 2 days, the kill in % is determined. 100% means that all of the flies have been killed; 0% means that none of the flies have been killed.

[10] = system: cattle ticks (Boophilus microplus) Parkhurst strain, SP-resistant; test: Boophilus microplus dip test (BOOPMI Dip); assay type: in vivo; conditions: application rate 100 ppm, assessed after 7 days
Description: Boophilus microplus—Dip Test (BOOPMI Dip)
Test animals: cattle ticks (Boophilus microplus) Parkhurst strain, SP-resistant
as §4
10 mg of active compound are dissolved in 0.5 ml of dimethyl sulphoxide. To prepare a suitable formulation, the active compound solution is diluted with water to the concentration desired in each case.
This active compound preparation is pipetted into tubes. 8-10 adult engorged female cattle ticks (Boophilus microplus) are transferred into a further tube with holes. The tube is immersed into the active compound formulation, and all ticks are completely wetted. After the liquid has run out, the ticks are transferred on filter discs into plastic dishes and stored in a climate-controlled room.
as §5

[11] = system: Tick nymphs (Amblyomma hebraeum); test: Amblyomma hebaraeum test (AMBYHE), tick nymph immersion; assay type: in vivo; conditions: application rate 100 ppm; immersion one minute; after 42 days
Description: Amblyomma hebaraeum Test (AMBYHE) Solvent: dimethyl sulphoxide To produce a suitable preparation of active compound, 10 mg of active compound are mixed with 0.5 ml of dimethyl sulphoxide, and the concentrate is diluted with water to the desired concentration. Tick nymphs (Amblyomma hebraeum) are placed into perforated plastic beakers and immersed in the desired concentration for one minute. The ticks are transferred on filter paper into a Petri dish and stored in a climate-controlled cabinet. After 42 days, the kill in % is determined. 100% means that all of the ticks have been killed; 0% means that none of the ticks have been killed.

[12] = system: adult cat fleas (Ctenocephalides felis); test: Ctenocephalides felis oral test (CTECFE); assay type: in vivo; conditions: application rate 100 ppm in citrated cattle blood; after 2 days
Description: Ctenocephalides felis-Oral Test ([…]) Solvent: dimethyl sulphoxide To produce a suitable preparation of active compound, 10 mg of active compound are mixed with 0.5 ml of dimethyl sulphoxide. Dilution with citrated cattle blood gives the desired concentration. About 20 unfed adult cat fleas (Ctenocephalides felis) are placed into a chamber which is closed at the top and bottom with gauze. A metal cylinder whose bottom end is closed with a parafilm is placed onto the chamber. The cylinder contains the blood/active ingredient preparation, which can be imbibed by the fleas through the parafilm membrane. After 2 days, the kill in % is determined. 100% means that all of the fleas have been killed; 0% means that none of the fleas have been killed.

Structure (SMILES) | efficacy in % [1] [%] | efficacy in % [2] [%] | efficacy in % [3] [%] | chromatographic logP [4] | efficacy (no laying of fertile eggs) [5] [%] | efficacy in % [6] [%] | kill in % [7] [%] | nematicidal efficacy in % (formation of galls) [8] [%] | kill in % [9] [%] | efficacy (no laying of fertile eggs) [10] [%] | kill in % [11] [%] | kill in % [12] [%]
CCC(=O)NC(C)c1cccc(-c2cnn(-c3c(C(F)(F)F)c(C(F)(F)C(F)(F)F)nn3C)c2)c1 (stereo not shown) [Ic-33] | 100 | 90 | 100 | – | – | – | – | – | – | – | – | –
Cn1nc(C(F)(F)C(F)(F)F)c(C(F)(F)F)c1-n1cc(-c2cccc(CNC(=O)OC(C)(C)C)c2)cn1 [Ic-18, tert-butyl {3-[2′-methyl-5′-(pentafluoroethyl)-4′-(trifluoromethyl)-2′H-1,3′-bipyrazol-4-yl]benzyl}carbamate] | – | 100 | – | 4.74 | 100 | – | – | – | – | – | – | –
CCC(=O)NCc1cncc(-c2cnn(-c3c(C(F)(F)F)c(C(F)(F)C(F)(F)F)nn3C)c2)c1 [Ic-26] | 100 | 100 | 90 | – | – | 83 | – | – | – | – | – | –
Cn1nc(C(F)(F)C(F)(F)F)c(C(F)(F)F)c1-n1cc(-c2ccc(F)c(CNC(=O)c3ccsc3)c2)cn1 [Ic-23] | 100 | – | – | – | 100 | – | 95 | 90 | – | – | – | –
CCC(=O)NCc1cccc(-c2cnn(-c3c(C(F)(F)F)c(C(F)(F)C(F)(F)F)nn3C)c2)c1 [Ic-1, N-{3-[2′-methyl-5′-(pentafluoroethyl)-4′-(trifluoromethyl)-2′H-1,3′-bipyrazol-4-yl]benzyl}propanamide] | 100 | – | 90 | 3.59 | 100 | 100 | 100 | 90 | 100 | 100 | 100 | 100
CC(F)C(=O)NCc1cc(-c2cnn(-c3c(C(F)(F)F)c(C(F)(F)C(F)(F)F)nn3C)c2)ccc1F (racemic) [Ic-22] | 100 | 90 | 100 | – | – | 83 | – | – | – | – | – | –
Cn1nc(C(F)(F)C(F)(F)F)c(C(F)(F)F)c1-n1cc(-c2ccc(F)c(CNC(=O)Cc3cccs3)c2)cn1 [Ic-7] | 100 | – | 100 | – | 100 | 83 | 100 | 90 | – | – | – | 90
CCC(=O)NCc1cccc(-c2ncn(-c3c(C(F)(F)F)c(C(F)(F)C(F)(F)F)nn3C)n2)c1 [Ie-1] | – | – | – | – | – | – | – | 90 | – | – | – | –
CC(=O)NCc1cncc(-c2cnn(-c3c(C(F)(F)F)c(C(F)(F)C(F)(F)F)nn3C)c2)c1 [Ic-8] | 100 | 90 | 90 | – | – | – | – | – | – | – | – | –

From US9675070B2 (BAYER CROPSCIENCE AG, priority 2013, dated 2017)
